From patent publication US20040253647A1, “Cell-based high-throughput screening methods” (priority 2001, published 2004) come the findings set out here.

Peptide text beside a SMILES is read from it. * marks the point of attachment. Cbz = O=C(OCc1ccccc1)*

Common to all, as to format: cell-based, murine
In assay [1] the test system is βCTF levels in L/APP cells (L cell line overexpressing human APP695). As to the kind of experiment: βCTF ELISA (C1/6.1 capture, JRF/AβN/25 detection) on cell lysates. As to conditions: for reduction of βCTF levels relative to control: 10 μg/ml for 6 hours (FIG. 10B); for βCTF levels: control 2.7 (FIG. 8A). The method, then:
(§1) Cell lines, cDNA constructs, and transfections. Ltk-cells (a murine fibroblast-like cell line; (S. Kit et al., 1967, J. Virol., 1(1): 238-240) were maintained at 37° C. and 5% CO2 in high glucose DMEM, (Celigro, Hedon, Va.) supplemented to contain 10% fetal bovine serum (Gemini, Woodland, Calif.), 2 mM glutamax I (Gibco/BRL, Gaithersburg, Md.), and penicillin/streptomycin (Celigro). cDNAs encoding human APP695 and human rab5 were inserted into the mammalian expression vector pcDNA3 (Invitrogen, Carlsbad, Calif.). Following transfection using lipofectin (manufacturer's protocol; Gibco/BRL), stable L cell lines overexpressing APP695 were selected in 400 μg/ml G418 (Gemini) and screened for expression. Transient transfections with rab5 were done using lipofectAMINE (Gibco/BRL) or fugene (Boehringer-Mannheim, Indianapolis, Ind.) according to the manufacturers' protocol.
(§2) Sandwich ELISAs. Sandwich ELISAs using the antibodies as presented in Table 1 were performed essentially as has been reported (C. Janus et al. Id.; R. Rozmahel et al., Neurobiology of Aging, 23:187-194; and P. M. Mathews et al., 2002, J. Biol. Chem., 277: 5299-5307), with modifications to detect cell-associated APP metabolites. The wells of Nunc-Immuno PIates (Nunc A/S, Roskilde, Denmark) were coated overnight at 4° C. using 20 μg/ml of C1/6.1 and the remaining protein binding sites were blocked by incubating with 1% Block Ace (Yukijirushi Milk, Sapporo Japan) in PBS (200 μl/well) for 4 hours at room temperature.
(§3) For the βCTF ELISA, a synthetic peptide was prepared, i.e., […], (SEQ ID NO:1), that contains both the JRF/AβN/25 epitope (SEQ ID NO:4) and the C1/6.1 epitope (SEQ ID NO:2), (see Table I). For the APP/total CTF ELISA, a glutathione S-transferase fusion protein containing the C-terminal 99 residues of human APP (GST-βPP672-770; (K. Islam and E. Levy, 1997, Am. J. Pathol. 151(1):265-71) was prepared. This fusion protein contains both the C1/6.1 and C2/7.1 epitopes. These standards, prepared as stock solutions, were dissolved in DMSO, stored at −70° C., and were further diluted in buffer containing 20 mM Na phosphate, 2 mM EDTA,. 400 mM NaCl, 0.2% BSA, 0.05% CHAPS, 0.4% Block Ace and 0.05% NaN3, pH 7.0 immediately, prior to use.
(§4) ELISA plates were incubated overnight at 4° C. with samples and standards. Samples, as described herein, were cell lysates prepared in 1% Triton X-100®, 140 mM NaCl, 25 mM Tris (pH 7.4), 0.5 mM EDTA, and protease inhibitors. Lysates were vortexed briefly, allowed to rest on ice for 30 minutes, and centrifuged at 6,000 rpm in an Eppendorf centrifuge. The supernatant was used for the ELISA. Following overnight binding of APP and APP metabolites to the capture antibody (C/1/6.1), the wells were washed twice with phosphate buffered saline (PBS) containing 0.5% Triton X-100®/0.05% Tween-20 followed by two washes with PBS. A solution containing 20 mM Na phosphate, 2 mM EDTA, 400 mM NaCl, and 1% BSA, pH 7.0 was then added to the wells for 1 hour at room temperature.
(§5) APP and cell-associated APP metabolites were detected by incubating for 4 hours at room temperature with horseradish peroxidase (HRP)-conjugated C2/7.1 or JRF/AβN/25 diluted in 20 mM Na phosphate, 2 mM EDTA, 400 mM NaCl, 1% BSA, pH 7.0. Thereafter, the wells were again washed twice with phosphate buffered saline (PBS) containing 0.5% Triton X-100®/0.05% Tween-20, followed by two washes with PBS. ELISA plates were developed using a color reaction (TMB Microwell Peroxidase Substrate System, Kirkegaard & Perry, Gaithersburg, MD) and the OD450 was read. ELISA signals are reported as the mean ±SE of two or more wells in femtomoles per ml relative to standard.
(§6) Preparation of cell lysates for ELISA. Cells were seeded into 6-well dishes and allowed to settle overnight. […]

The subject of assay [2] is APP holoprotein and all CTFs in L/APP cells. As to the kind of experiment: APP/total CTF ELISA (C1/6.1 capture, C2/7.1 detection) on L/APP cell lysates. The note with it: for cellular APP levels (APP/total CTF) relative to untreated control cells: 10 μg/ml for 6 hours (FIG. 10A). How it is done:
as §1, §2, §3, §4, §5, §6

Assay [3] has as its system Aβ1-40 secreted by L/APP cells. Nature of the assay: Aβ1-40 ELISA of growth media. As to conditions: 10 μg/ml, 6 hour incubation (FIG. 10C). How it is done: L/APP cells were plated at equal density and APP expression was induced. Cells were then incubated for 6 hours without treatment, or with the addition of 10 μg/ml cyclohexamide or 10 μg/ml 3-methyl adenine (3MA). APP/total CTF levels (FIG. 10A) and βCTF levels (FIG. 10B) in cell lysates were then determined by ELISA. Aβ1-40 (FIG. 10C) and Aβ1-42 (FIG. 10D) levels secreted into the growth media during this 6 hour incubation were determined by ELISA (C. Janus et al., 2000, Nature, 408(6815):979 982). Data are expressed as a percentage of, the level seen in untreated control cells for each assay.
In addition, Aβ levels in the growth media were examined from these test cells. […] Again, the reduction in Aβ generation obtained with cyclohexamide treatment is due to non-specific cytotoxicity, while the reduction in Aβ generation obtained following 3MA treatment is linked to a specific reduction in βCTF generation.

For assay [4], the system named is APP holoprotein, αCTF and βCTF in L/APP cells. As to the kind of experiment: Metabolic pulse-chase labeling and immunoprecipitation of APP and CTFs. As to conditions: for levels of αCTFs and βCTFs after 1 hour chase (C1/6.1 immunoprecipitation): 10 μM, 3 hours pretreatment plus pulse and chase (FIG. 1). How it is done:
Metabolic labeling, immunoprecipitation and Western blot analysis. To detect APP and CTFs, 5×10^5 cells were seeded onto 35-mm diameter tissue culture dishes followed by induction of human APP695 expression with 20 mM butyrate for 24 hours (P. M. Mathews et al., 1992, J. Cell. Biol., 118(5):1027-1040; P. M. Mathews et al., 2000 Mol Med., 6(10)878-891). Cultures were methionine/cysteine starved for 20 minutes, pulse-labeled for 15 minutes with 100 μCi/ml TRANS^35S-LABEL (Dupont-NEN), washed, and chased in complete medium containing 2 mM unlabeled methionine (P. M. Mathews et al., 1992, J. Cell. Biol., 118(5):1027-1040). Calpain inhibitors, as described herein, were added to the growth medium 3 hours prior to methionine/cysteine starvation and then throughout pulse-labeling and chase.
Cell lysates (prepared in 1% Triton X-100, 140 mM NaCl, 25 mM Tris pH 7.4, 0.5 mM EDTA, 10 mM methionine and protease inhibitors; (P. M. Mathews et al., 1992, J. Cell. Biol., 118(5):1027-1040; A. Beggan et al., 1996, J. Biol. Chem., 271(34):20895-20902) were subjected to immunoprecipitation with various monoclonal antibodies as described in Example 2. Immunoprecipitated proteins were sized by SDS-PAGE and labeled proteins were visualized by exposure to x-ray film and analyzed quantitatively using a Storm 840 phosphorimager (Molecular Dynamics/Amersham Biosciences, Sunnyvale, Calif. and/or by scan analysis (NIH Image).
To determine whether a particular monoclonal antibody detected APP holoprotein and/or αCTF and/or βCTF or both, L cells overexpressing human APP695 (L/APP cells) were metabolically labeled for 15 minutes, and then were chased for 1 hour (FIG. 1, lanes 1-6).
Thus, in addition to control conditions, cells were treated for 3 hours prior to, as well as during, the pulse and chase periods with the indicated calpain inhibitors (FIG. 1, lanes 7-18) to increase the levels of metabolically labeled CTFs prior to immunoprecipitation. Equal volumes of detergent lysates prepared from the pulse and chase periods were subjected to immunoprecipitation with each of the monoclonal antibodies and labeled APP species were resolved on 4-20% gradient SDS-PAGE.
The pulse-chase experiment shown in FIGS. 2A and 2B was designed to determine if C1/6.1 was able to detect other species of CTFs (e.g. the γCTF). Accordingly, L/APP cells were pulse-labeled for 15 minutes and chased for the indicated times up to 6 hours prior to immunoprecipitation of lysates with C1/6.1.

A further assay has as its system APP CTFs in L/APP cells. Nature of the assay: Western blot analysis using C1/6.1. The note with it: 10 μm calpeptin 6 hours (FIG. 5A). How it is done:
For Western blot analysis, protein concentration in cell lysates was determined (BioRad DC Protein Assay, BioRad, Rockville Center, N.Y.), and equal amounts of proteins were separated by SDS-PAGE and transferred to PVDF membrane. Membranes were incubated in C1/6.1 (2 μg/ml) overnight, washed, and incubated with HRP-conjugated goat anti-mouse IgG for 1.5 hours. Membranes were incubated in ECL substrate (Amersham, Arlington Heights, Ill.) and exposed to x-ray film.
In this rab5 overexpression experiment, L/APP cells were transiently-transfected with no DNA (FIG. 5A, lanes 1 and 2), or rab5 cDNA (FIG. 5A, lanes 3-5) and the levels of APP holoprotein and CTFs were determined by Western blot analysis using C1/6.1 (FIG. 5A).

In assay [5] the test system is APP holoprotein and all CTFs in parental L cells. Nature of the assay: APP/total CTF ELISA on parental L cell lysates. As to conditions: 10 μM calpeptin 6 hours (FIG. 7B). The method, then:
as §1
Sandwich ELISAs. […]
APP and cell-associated APP metabolites were detected by incubating for 4 hours at room temperature with horseradish peroxidase (HRP)-conjugated C2/7.1 or JRF/AβN/25 diluted in 20 mM Na phosphate, 2 mM EDTA, 400 mM NaCl, 1% BSA, pH 7.0. […] ELISA plates were developed using a color reaction (TMB Microwell Peroxidase Substrate System, Kirkegaard & Perry, Gaithersburg, MD) and the OD450 was read. […]

[6] abbreviates: 75 μg/ml cyclohexamide 6 hours, versus control.

For `Cn1cnc(N)c2ncnc1-2` [3MA, 3-methyl adenine], the “reduction of βCTF levels relative to control” value in assay [1] amounted to 50%. Moreover, the “cellular APP levels (APP/total CTF) relative to untreated control cells” value in assay [2] is reported as “did not reduce cellular APP levels”. Also, the “Aβ1-40 levels in growth media relative to control” value in assay [3] is “reduction in Aβ1-40 levels relative to control”.

With `CC(C)[C@H](NC(=O)OCc1ccccc1)C(=O)N[C@H](C=O)Cc1ccccc1` [calpain inhibitor III] (Cbz-Val-Phe-aldehyde), the “levels of αCTFs and βCTFs after 1 hour chase (C1/6.1 immunoprecipitation)” value in assay [4] is “substantial and apparently proportionate increase in the levels of both αCTFs and βCTFs”.

For the compound `C[C@@H]1C[C@@H]([C@H](O)CC2CC(=O)NC(=O)C2)C(=O)[C@@H](C)C1` [cyclohexamide], in assay [1], the “reduction of βCTF levels relative to control” value is given as “reduced βCTF levels somewhat more”. The compound also registered a βCTF levels in assay [1] (75 μg/ml cyclohexamide 6 hours) of 0.6 fmol/mL. Moreover, in assay [1] (setting [6]), the “reduction of βCTF levels” value stood at 78%. In addition, the “cellular APP levels (APP/total CTF) relative to untreated control cells” value in assay [2] was “cyclohexamide treatment did”. Moreover, the “APP/total CTF levels” value in assay [2] (75 μg/ml cyclohexamide 6 hours, control 608 (FIG. 8B)) came out at 74 fmol/mL. In addition, the “reduction of APP/total CTF levels” value in assay [2] (setting [6]) is listed as 88%. Besides, the “Aβ1-40 levels in growth media relative to control” value in assay [3] is listed as “reduction in Aβ1-40 levels relative to control”.

Compound `CCCC[C@@H](C=O)NC(=O)[C@H](CC(C)C)NC(=O)OCc1ccccc1` [calpeptin] had a βCTF levels in assay [1] (10 μM calpeptin 6 hours) of 5.4 fmol/mL. For the same compound, the “amount of βCTFs detected by ELISA” value in assay [1] (10 μM calpeptin 6 hours, untreated 16.1 (FIG. 5B)) worked out at 26.0 fmol/mL. The “βCTF levels detected by ELISA” value in assay [1] (10 μM calpeptin for 6 hours, untreated 5.8±0.3 (FIG. 4)) is 10.0 ± 0.6 fmol/mL. Besides, the “levels of CTFs by Western blot” value with APP CTFs in L/APP cells is recorded as “greatly increased the levels of CTFs detected”. Further, in assay [4] (10 μM calpeptin (FIG. 2B)), the “generation of α and βCTFs during the initial 1 hour of chase” value is “substantially increased the generation of both α and βCTFs”; the “turnover of CTFs” value is given as “did not appear to reduce the turnover of CTFs”. Moreover, the “turnover of APP holoprotein” value in assay [4] (10 μM calpeptin, chase up to 6 hours (FIG. 2A)) is reported as “unchanged”. Further, the “levels of αCTFs and βCTFs after 1 hour chase (C1/6.1 immunoprecipitation)” value in assay [4] was “substantial and apparently proportionate increase in the levels of both αCTFs and βCTFs”. Besides, the “APP/total CTF ELISA signal” value in assay [2] (10 μM calpeptin 6 hours (FIG. 7B)) was “greatly increased the ELISA signal”. The “change in APP/total CTF levels” value in assay [2] (10 μM calpeptin 6 hours (FIG. 8B)) is listed as “smaller relative increase in APP/total CTF levels”. Moreover, the “APP/total CTF ELISA signal” value in assay [5] is “increased the signal in the L cells, although not to a statistically significant degree”.
